Source: PubChem BioAssay (NCI)
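Five concentrations, 48 hours, 96-well plates. Abbreviation: GI50, concentration required for 50% inhibition of growth. TGI denotes the concentration required for complete inhibition of growth.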 Calls of active or inactive are those of the source. Cut-off read from the data, not from the text of the source: active = GI50 below about 0.43 µM; inactive = the rest.

Assays:
Assay in all cases: NCI tumour cell line growth inhibition, 48 h
[1] = tested on: KM12 colon
[2] = tested on: 786-0 renal
[3] = tested on: NCI/ADR-RES ovarian
[4] = tested on: BT-549 breast
[5] = tested on: K-562 leukemia
[6] = tested on: PC-3 prostate
[7] = tested on: T-47D breast
[8] = tested on: NCI-H460 lung
[9] = tested on: SN12C renal
[10] = tested on: U251 CNS
[11] = tested on: CCRF-CEM leukemia
[12] = tested on: HT29 colon
[13] = tested on: OVCAR-5 ovarian
[14] = tested on: HCC-2998 colon
[15] = tested on: NCI-H522 lung
[16] = tested on: NCI-H226 lung
[17] = tested on: MALME-3M melanoma
[18] = tested on: M14 melanoma
[19] = tested on: OVCAR-4 ovarian
[20] = tested on: SF-295 CNS
[21] = tested on: SK-MEL-2 melanoma
[22] = tested on: SNB-75 CNS
[23] = tested on: EKVX NSCLC
[24] = tested on: SK-OV-3 ovarian
[25] = tested on: COLO 205 colon
[26] = tested on: IGROV1 ovarian
[27] = tested on: OVCAR-8 ovarian
[28] = tested on: DU-145 prostate
[29] = tested on: MDA-MB-435
[30] = tested on: SK-MEL-5 melanoma
[31] = tested on: HOP-62 NSCLC
[32] = tested on: CAKI-1 renal
[33] = tested on: MDA-MB-231 breast
[34] = tested on: UO-31 renal
[35] = tested on: NCI-H23 lung
[36] = tested on: SF-268 CNS
[37] = tested on: LOX IMVI melanoma
[38] = tested on: TK-10 renal
[39] = tested on: UACC-257 melanoma
[40] = tested on: OVCAR-3 ovarian
[41] = tested on: SF-539 CNS
[42] = tested on: HS 578T breast
[43] = tested on: A498 renal
[44] = tested on: MOLT-4 leukemia
[45] = tested on: SR leukemia
[46] = tested on: MCF7 breast
[47] = tested on: SW-620 colon
[48] = tested on: HL-60(TB) leukemia
[49] = tested on: HCT-116 colon
[50] = tested on: UACC-62 melanoma
[51] = tested on: A549 NSCLC
[52] = tested on: RXF 393 renal
[53] = tested on: SK-MEL-28 melanoma
[54] = tested on: SNB-19 CNS
[55] = tested on: HCT-15 colon
[56] = tested on: ACHN renal
[57] = tested on: RPMI-8226 leukemia

Which results are given for `Clc1ccc(CN2COc3c(ccc4cccnc34)C2)cc1Cl`?
GI50 [1]: 1200 nM; TGI [1]: 4.49 µM; GI50 [2]: 1990 nM; TGI [2]: 5.85 µM; GI50 [3]: 394 nM; TGI [3]: 2150 nM; GI50 [4]: 2460 nM; TGI [4]: 17.5 µM; GI50 [5]: 895 nM; TGI [5]: 2680 nM; GI50 [6]: 798 nM; TGI [6]: 11.5 µM; GI50 [7]: 1680 nM; TGI [7]: 11.3 µM; GI50 [8]: 532 nM; TGI [8]: 2520 nM; GI50 [9]: 2040 nM; TGI [9]: 13.8 µM; GI50 [10]: 966 nM; TGI [10]: 13.2 µM; GI50 [11]: 578 nM; TGI [11]: 3.69 µM; GI50 [12]: 4.05 µM; TGI [12]: 15.2 µM; GI50 [13]: 1790 nM; TGI [13]: 15.2 µM; GI50 [14]: 2280 nM; TGI [14]: 8.77 µM; GI50 [15]: 1100 nM; TGI [15]: 2610 nM; GI50 [16]: 1280 nM; TGI [16]: 7.12 µM; GI50 [17]: 2230 nM; TGI [17]: 9.16 µM; GI50 [18]: 1260 nM; TGI [18]: 4.74 µM; GI50 [19]: 531 nM; TGI [19]: 12.9 µM; GI50 [20]: 2350 nM; TGI [20]: 12.6 µM; GI50 [21]: 2150 nM; TGI [21]: 7.47 µM; GI50 [22]: 2360 nM; TGI [22]: 13.4 µM; GI50 [23]: 1310 nM; TGI [23]: 15.2 µM; GI50 [24]: 1340 nM; TGI [24]: 13.1 µM; GI50 [25]: 3.18 µM; TGI [25]: 11.9 µM; GI50 [26]: 1050 nM; TGI [26]: 3.61 µM; GI50 [27]: 730 nM; TGI [27]: 10.2 µM; GI50 [28]: 1770 nM; TGI [28]: 14.8 µM; GI50 [29]: 1960 nM; TGI [29]: 9.18 µM; GI50 [30]: 971 nM; TGI [30]: 2900 nM; GI50 [31]: 1490 nM; TGI [31]: 10.9 µM; GI50 [32]: 3.28 µM; TGI [32]: 13.2 µM; GI50 [33]: 1320 nM; TGI [33]: 9.92 µM; GI50 [34]: 400 nM; TGI [34]: 10.5 µM; GI50 [35]: 2560 nM; TGI [35]: 14.9 µM; GI50 [36]: 1320 nM; TGI [36]: 12.1 µM; GI50 [37]: 1010 nM; TGI [37]: 2700 nM; GI50 [38]: 3.35 µM; TGI [38]: 17.9 µM; GI50 [39]: 2530 nM; TGI [39]: 7.89 µM; GI50 [40]: 468 nM; TGI [40]: 12.1 µM; GI50 [41]: 1280 nM; TGI [41]: 3.72 µM; GI50 [42]: 1960 nM; TGI [42]: 10.1 µM; GI50 [43]: 0.00172 mM; TGI [43]: 11.8 µM; GI50 [44]: 1550 nM; TGI [44]: 4.89 µM; GI50 [45]: 354 nM; TGI [45]: 1410 nM; GI50 [46]: 697 nM; TGI [46]: 3.59 µM; GI50 [47]: 1280 nM; TGI [47]: 5.39 µM; GI50 [48]: 297 nM; TGI [48]: 1300 nM; GI50 [49]: 712 nM; TGI [49]: 2780 nM; GI50 [50]: 584 nM; TGI [50]: 2410 nM; GI50 [51]: 1640 nM; TGI [51]: 12.9 µM; GI50 [52]: 1050 nM; TGI [52]: 4.1 µM; GI50 [53]: 1470 nM; TGI [53]: 14.2 µM; GI50 [54]: 1980 nM; TGI [54]: 14.3 µM; GI50 [55]: 483 nM; TGI [55]: 15.5 µM; GI50 [56]: 525 nM; TGI [56]: 10.6 µM

How did the outcome [1] turn out when `CS(C)(=O)=O` was run?
The outcome was “inactive”.

What about the outcome [2] of the same molecule?
Its outcome is “inactive”.

What about the outcome [3] of the same molecule?
The outcome was “inactive”.

What about the outcome [4] of the same molecule?
Its outcome is “inactive”.

What about the outcome [5] of the same molecule?
The outcome was “inactive”.

And the outcome [6]?
The outcome was “inactive”.

And the outcome [7]?
Its outcome is “inactive”.

And the outcome [8]?
Its outcome is “inactive”.

What about the outcome [9] of the same molecule?
The outcome was “inactive”.

And the outcome [10]?
Its outcome is “inactive”.

And the outcome [11]?
Its outcome is “inactive”.

And the outcome [12]?
Its outcome is “inactive”.

And the outcome [13]?
The outcome was “inactive”.

What about the outcome [15] of the same molecule?
The outcome was “inactive”.

And the outcome [16]?
Its outcome is “inactive”.

And the outcome [17]?
The outcome was “inactive”.

And the outcome [18]?
The outcome was “inactive”.

And the outcome [19]?
The outcome was “inactive”.

What about the outcome [20] of the same molecule?
Its outcome is “inactive”.

And the outcome [21]?
The outcome was “inactive”.

What about the outcome [22] of the same molecule?
The outcome was “inactive”.

What about the outcome [23] of the same molecule?
The outcome was “inactive”.

What about the outcome [24] of the same molecule?
Its outcome is “inactive”.

And the outcome [25]?
Its outcome is “inactive”.

And the outcome [26]?
Its outcome is “inactive”.

And the outcome [27]?
The outcome was “inactive”.

What about the outcome [28] of the same molecule?
The outcome was “inactive”.

And the outcome [29]?
Its outcome is “inactive”.

What about the outcome [30] of the same molecule?
Its outcome is “inactive”.

What about the outcome [31] of the same molecule?
The outcome was “inactive”.

What about the outcome [32] of the same molecule?
The outcome was “inactive”.

And the outcome [33]?
The outcome was “inactive”.

And the outcome [34]?
The outcome was “inactive”.

And the outcome [35]?
Its outcome is “inactive”.

And the outcome [36]?
Its outcome is “inactive”.

What about the outcome [37] of the same molecule?
Its outcome is “inactive”.

And the outcome [38]?
Its outcome is “inactive”.

And the outcome [39]?
The outcome was “inactive”.

And the outcome [40]?
The outcome was “inactive”.

What about the outcome [41] of the same molecule?
Its outcome is “inactive”.

What about the outcome [42] of the same molecule?
The outcome was “inactive”.

What about the GI50 [43] of the same molecule?
The GI50 was 42 mM.

And the outcome [44]?
Its outcome is “inactive”.

And the outcome [45]?
The outcome was “inactive”.

What about the outcome [46] of the same molecule?
The outcome was “inactive”.

What about the outcome [47] of the same molecule?
The outcome was “inactive”.

What about the outcome [57] of the same molecule?
Its outcome is “inactive”.

What about the outcome [48] of the same molecule?
Its outcome is “inactive”.

And the outcome [49]?
The outcome was “inactive”.

What about the outcome [50] of the same molecule?
The outcome was “inactive”.

And the outcome [51]?
The outcome was “inactive”.

And the outcome [52]?
The outcome was “inactive”.

What about the outcome [53] of the same molecule?
Its outcome is “inactive”.

What about the outcome [54] of the same molecule?
Its outcome is “inactive”.

What about the outcome [55] of the same molecule?
Its outcome is “inactive”.

And the outcome [56]?
Its outcome is “inactive”.
